Patent US20160367623A1, “AGONISTS OF GUANYLATE CYCLASE USEFUL FOR THE TREATMENT OF GASTROINTESTINAL DISORDERS, INFLAMMATION, CANCER AND OTHER DISORDERS” (priority 2015, published 2016)
Bridge positions count the residues as written; N and C are the ends. Ends that are not written are not given here.

System: patients with chronic idiopathic constipation (CIC)
Assay: Second phase 3 CIC trial: change from baseline in stool consistency (BSFS)
Type: in vivo, human
[1] = 6 mg, Week 9, ITT Population-Excluding Duplicate Patients
[2] = 6 mg, Week 10, All Randomized (includes Duplicate Patients)
[3] = 6 mg, Week 10, ITT Population-Excluding Duplicate Patients
[4] = 6 mg, Week 11, All Randomized (includes Duplicate Patients)
[5] = 6 mg, Week 11, ITT Population-Excluding Duplicate Patients
[6] = 6 mg, Week 12, All Randomized (includes Duplicate Patients)
[7] = 6 mg, Week 12, ITT Population-Excluding Duplicate Patients
[8] = 6 mg, overall average estimate across the 12-week treatment period, All Randomized (includes Duplicate Patients)
[9] = 6 mg, overall average estimate across the 12-week treatment period, ITT Population
[10] = 6 mg, overall average estimate across the 12-week treatment period, ITT Population-Excluding Duplicate Patients

Asn^1-Asp^2-Glu^3-Cys^4-Glu^5-Leu^6-Cys^7-Val^8-Asn^9-Val^10-Ala^11-Cys^12-Thr^13-Gly^14-Cys^15-Leu^16 (NDECELCVNVACTGCL; disulfide 4-12, 7-15) [Plecanatide, uroguanylin analogue, guanylate cyclase-C agonist; (C4:C12, C7:C15) bicycle peptide]
Change from Baseline in Stool Consistency, LS Mean (SE) (6 mg, Week 9, All Randomized (includes Duplicate Patients)): 1.54 (0.073)
Change from Baseline in Stool Consistency, Difference from Placebo (6 mg, Week 9, ITT Population): 0.68
Change from Baseline in Stool Consistency, LS Mean (SE) (6 mg, Week 9, ITT Population): 1.57 (0.075)
Change from Baseline in Stool Consistency, Mean (SD) (6 mg, Week 9, ITT Population): 1.62 (1.507)
Change from Baseline in Stool Consistency, Difference from Placebo [1]: 0.68
Change from Baseline in Stool Consistency, LS Mean (SE) [1]: 1.59 (0.075)
Change from Baseline in Stool Consistency, Mean (SD) [1]: 1.63 (1.510)
Change from Baseline in Stool Consistency, Difference from Placebo [2]: 0.62
Change from Baseline in Stool Consistency, LS Mean (SE) [2]: 1.52 (0.073)
Change from Baseline in Stool Consistency, Difference from Placebo (6 mg, Week 10, ITT Population): 0.62
Change from Baseline in Stool Consistency, LS Mean (SE) (6 mg, Week 10, ITT Population): 1.55 (0.075)
Change from Baseline in Stool Consistency, Mean (SD) (6 mg, Week 10, ITT Population): 1.59 (1.432)
Change from Baseline in Stool Consistency, Difference from Placebo [3]: 0.63
Change from Baseline in Stool Consistency, LS Mean (SE) [3]: 1.57 (0.075)
Change from Baseline in Stool Consistency, Mean (SD) [3]: 1.60 (1.437)
Change from Baseline in Stool Consistency, Difference from Placebo [4]: 0.58
Change from Baseline in Stool Consistency, LS Mean (SE) [4]: 1.50 (0.073)
Change from Baseline in Stool Consistency, Difference from Placebo (6 mg, Week 11, ITT Population): 0.57
Change from Baseline in Stool Consistency, LS Mean (SE) (6 mg, Week 11, ITT Population): 1.53 (0.075)
Change from Baseline in Stool Consistency, Mean (SD) (6 mg, Week 11, ITT Population): 1.58 (1.499)
Change from Baseline in Stool Consistency, Difference from Placebo [5]: 0.59
Change from Baseline in Stool Consistency, LS Mean (SE) [5]: 1.55 (0.076)
Change from Baseline in Stool Consistency, Mean (SD) [5]: 1.59 (1.504)
Change from Baseline in Stool Consistency, Difference from Placebo [6]: 0.48
Change from Baseline in Stool Consistency, LS Mean (SE) [6]: 1.48 (0.074)
Change from Baseline in Stool Consistency, Difference from Placebo (6 mg, Week 12, ITT Population): 0.49
Change from Baseline in Stool Consistency, LS Mean (SE) (6 mg, Week 12, ITT Population): 1.51 (0.076)
Change from Baseline in Stool Consistency, Mean (SD) (6 mg, Week 12, ITT Population): 1.58 (1.487)
Change from Baseline in Stool Consistency, Difference from Placebo [7]: 0.51
Change from Baseline in Stool Consistency, LS Mean (SE) [7]: 1.53 (0.076)
Change from Baseline in Stool Consistency, Mean (SD) [7]: 1.59 (1.492)
Change from Baseline in Stool Consistency, Difference from Placebo [8]: 0.63
Change from Baseline in Stool Consistency, LS Mean (SE) [8]: 1.47 (0.059)
Change from Baseline in Stool Consistency, Difference from Placebo [9]: 0.63
Change from Baseline in Stool Consistency, LS Mean (SE) [9]: 1.50 (0.061)
Change from Baseline in Stool Consistency, Difference from Placebo [10]: 0.64
Change from Baseline in Stool Consistency, LS Mean (SE) [10]: 1.52 (0.061)
Change from Baseline in Stool Consistency, Mean (SD) (Active Combined, Post-Treatment Week 13, All Randomized (includes Duplicate Patients)): 1.15 (1.387)
Change from Baseline in Stool Consistency, Mean (SD) (Active Combined, Post-Treatment Week 13, ITT Population): 1.14 (1.392)
Change from Baseline in Stool Consistency, Mean (SD) (Active Combined, Post-Treatment Week 13, ITT Population-Excluding Duplicate Patients): 1.14 (1.397)
Change from Baseline in Stool Consistency, Mean (SD) (Active Combined, Post-Treatment Week 14, All Randomized (includes Duplicate Patients)): 1.12 (1.394)
Change from Baseline in Stool Consistency, Mean (SD) (Active Combined, Post-Treatment Week 14, ITT Population): 1.12 (1.379)
Change from Baseline in Stool Consistency, Mean (SD) (Active Combined, Post-Treatment Week 14, ITT Population-Excluding Duplicate Patients): 1.12 (1.384)
Change from Baseline in Stool Consistency, Mean (SD) (Active Combined, Week 1, All Randomized (includes Duplicate Patients)): 1.41 (1.482)
Change from Baseline in Stool Consistency, Mean (SD) (Active Combined, Week 1, ITT Population): 1.42 (1.490)
Change from Baseline in Stool Consistency, Mean (SD) (Active Combined, Week 1, ITT Population-Excluding Duplicate Patients): 1.43 (1.482)
Change from Baseline in Stool Consistency, Mean (SD) (Active Combined, Week 2, All Randomized (includes Duplicate Patients)): 1.41 (1.563)
Change from Baseline in Stool Consistency, Mean (SD) (Active Combined, Week 2, ITT Population): 1.42 (1.571)
Change from Baseline in Stool Consistency, Mean (SD) (Active Combined, Week 2, ITT Population-Excluding Duplicate Patients): 1.43 (1.570)
Change from Baseline in Stool Consistency, Mean (SD) (Active Combined, Week 3, All Randomized (includes Duplicate Patients)): 1.48 (1.526)
Change from Baseline in Stool Consistency, Mean (SD) (Active Combined, Week 3, ITT Population): 1.49 (1.527)
Change from Baseline in Stool Consistency, Mean (SD) (Active Combined, Week 3, ITT Population-Excluding Duplicate Patients): 1.49 (1.532)
Change from Baseline in Stool Consistency, Mean (SD) (Active Combined, Week 4, ITT Population): 1.48 (1.550)
Change from Baseline in Stool Consistency, Mean (SD) (Active Combined, Week 4, ITT Population-Excluding Duplicate Patients): 1.49 (1.557)
Change from Baseline in Stool Consistency, Mean (SD) (Active Combined, Week 5, ITT Population): 1.63 (1.530)
Change from Baseline in Stool Consistency, Mean (SD) (Active Combined, Week 5, ITT Population-Excluding Duplicate Patients): 1.64 (1.535)
Change from Baseline in Stool Consistency, Mean (SD) (Active Combined, Week 6, ITT Population): 1.62 (1.525)
Change from Baseline in Stool Consistency, Mean (SD) (Active Combined, Week 6, ITT Population-Excluding Duplicate Patients): 1.62 (1.524)
Change from Baseline in Stool Consistency, Mean (SD) (Active Combined, Week 7, ITT Population): 1.57 (1.494)
Change from Baseline in Stool Consistency, Mean (SD) (Active Combined, Week 7, ITT Population-Excluding Duplicate Patients): 1.58 (1.498)
Change from Baseline in Stool Consistency, Mean (SD) (Active Combined, Week 8, ITT Population): 1.62 (1.520)
Change from Baseline in Stool Consistency, Mean (SD) (Active Combined, Week 8, ITT Population-Excluding Duplicate Patients): 1.62 (1.523)
Change from Baseline in Stool Consistency, Mean (SD) (Active Combined, Week 9, ITT Population): 1.65 (1.487)
Change from Baseline in Stool Consistency, Mean (SD) (Active Combined, Week 9, ITT Population-Excluding Duplicate Patients): 1.65 (1.489)
Change from Baseline in Stool Consistency, Mean (SD) (Active Combined, Week 10, ITT Population): 1.62 (1.485)
Change from Baseline in Stool Consistency, Mean (SD) (Active Combined, Week 10, ITT Population-Excluding Duplicate Patients): 1.62 (1.491)
Change from Baseline in Stool Consistency, Mean (SD) (Active Combined, Week 11, ITT Population): 1.58 (1.547)
Change from Baseline in Stool Consistency, Mean (SD) (Active Combined, Week 11, ITT Population-Excluding Duplicate Patients): 1.59 (1.548)
Change from Baseline in Stool Consistency, Mean (SD) (Active Combined, Week 12, ITT Population): 1.64 (1.483)
Change from Baseline in Stool Consistency, Mean (SD) (Active Combined, Week 12, ITT Population-Excluding Duplicate Patients): 1.64 (1.484)
